# In patent US20250340590A1, “PEPTIDE HAVING ANTI-INFLAMMATORY ACTIVITY AND USE THEREOF” (CAREGEN CO., LTD., priority 2021, published 2025):
# Key:
# IL-17 = IL-17 secretion by ELISA in mouse splenocytes induced with LPS, TGFβ and IL-23; format: cell-based; conditions: LPS 2 μg/mL, TGFβ 20 ng/ml, IL-23 20 ng/mL, 24 hours
# Source text: Inflammation was induced by treating mouse splenocytes with LPS, which is an inflammation-inducing antigen, and TGFβ and IL-23, which are inflammatory cytokines, and the secretion amounts of the inflammatory cytokines IL-17, IL-1β, and IFNγ were confirmed. The descriptions of IL-17, IL-1B, and IFNγ are the same as above.
# (§1) Mouse splenocytes were dispensed into a 24-well plate at a concentration of 1×10^7 cells/well and cultured until the next day. The medium was replaced with serum-free medium, and after 4 hours, the cells were treated with LPS, TGFβ, and IL-23 and the peptide of the present invention and then cultured again for another 24 hours. In order to induce inflammation, the cells were treated with LPS at 2 μg/mL, TGFβ at 20 ng/ml, IL-23 at 20 ng/mL, and the peptide at 5 μM and 50 μM, respectively. The mouse splenocytes in the group in which inflammation was not induced due to untreatment with LPS, TGFβ, and IL-23 (NON); the negative control group in which the cells were treated with LPS, TGFβ, and IL-23 but not treated with the peptide (NC); and the group in which the cells were treated with LPS, TGFβ, and IL-23 along with the peptide of the present invention at the same concentration as above, respectively, were reacted as described above and the cell cultures were recovered. […]
# IL-1β = IL-1β secretion by ELISA in TNFα-induced mouse splenocytes; format: cell-based; conditions: TNFα 20 nM, 24 hours
# Experimental: Inflammation was induced by treating mouse splenocytes with the inflammatory cytokine TNFα, and the secretion amounts of the inflammatory cytokines IL-17, IL-1B, and IFNγ were confirmed. IL-17 corresponds to a pro-inflammatory cytokine, and the descriptions of IL-1β and IFNγ are the same as above.
# as §1, with “TNFα” for “LPS, TGFβ, and IL-23”, “TNFα” for “LPS at 2 μg/mL, TGFβ”, “nM,” for “ng/ml, IL-23 at 20 ng/mL,”
# IL-6 = IL-6 mRNA level by RT-PCR in LPS-induced mouse splenocytes; format: cell-based; conditions: LPS 2 μg/mL, peptide at 5 μM and 50 μM, 24 hours, compared to group not treated with the peptide
# Experimental: Inflammation was induced in mouse splenocytes, and the expression levels of TNFα, and IL-6 genes, which is the inflammatory cytokines were confirmed. In order to induce inflammation, the cells were treated with LPS, an inflammation-inducing antigen, and since TNFα corresponds to a signaling protein associated with inflammation, and IL-6 corresponds to a cytokine that promotes inflammation, the degree of inflammation can be confirmed by measuring the expression levels of TNFα and IL-6 genes.
# Mouse splenocytes were dispensed into a 24-well plate at a concentration of 1×10^7 cells/well and cultured until the next day. The medium was replaced with serum-free medium, and after 3 hours, the cells were treated with LPS and the peptide of the present invention and then cultured again for another 24 hours. In order to induce inflammation, the cells were treated with LPS at 2 μg/mL, and the peptide at […] and 50 μM, respectively. […] After quantifying the amount of isolated RNA, cDNA was synthesized using a cDNA synthesis kit (Intron, Korea), PCR was performed using a PCR premix (Intron, Korea) and primers for TNFα, and IL-6. […]
# Cox2 = Cox2 protein level by Western blot in TNFα-induced HaCaT cells; format: cell-based, human; conditions: TNFα 20 nM, peptide at 5 μM and 50 μM, 24 hours, compared to group not treated with TNFα
# Experimental: In order to confirm the anti-inflammatory effect of treatment with the peptides of the present invention having the amino acid sequence of SEQ ID NO: 1, inflammation was induced in HaCaT cells, which are human keratinocytes, and the expression level of Cox2 protein was confirmed. In order to induce inflammation, the cells were treated with TNFα, which is an inflammation-inducing cytokine, and since Cox2 is an enzyme involved in the synthesis of prostaglandins corresponding to an inflammation-related protein, it is possible to confirm whether inflammation is inhibited by measuring the expression level of Cox2.
# HaCaT cells were dispensed into a 24-well plate at a concentration of 3× 10^5 cells/well and cultured until the next day. The medium was replaced with serum-free medium, and after 4 hours, the cells were treated with TNFα and the peptide of the present invention and cultured again for another 24 hours. In order to induce inflammation, the cells were treated with TNFα at 20 nM, and treated with the peptide at 5 μM and 50 μM, respectively. […] In order to perform Western blotting, the amount of Cox2 protein was measured using an anti-Cox2 antibody (Cell Signaling Technology, USA). […]
substance,measurement,setting,value
TWNS [peptide of the present invention],secretion amount of IL-17,IL-17; peptide at 5 μM,slightly increased
same,secretion amount of IL-17,IL-17; peptide at 50 μM,decreased
same,secretion amount of IL-1β,IL-1β; peptide at 5 μM,decreased
same,secretion amount of IL-1β,IL-1β; peptide at 50 μM,decreased
same,mRNA expression level of IL-6,IL-6,decreased
same,expression level of Cox2 protein,Cox2,decreased
